The test system of assay [1] is Aβ plaques in AD brain. The settings on record: cited from earlier work.
Assay [2] deals with T1, recombinant α-syn fibrils (Homo sapiens, UniProt P37840). The following applies: read-out: Ki, α-Syn fibrils; 200 nM [125I]SIL23, 1 µM fibrils; Ki from EC50; 95% confidence interval in parentheses.
The target in assay [3] is T2, Human PD brain homogenate (insoluble fraction) (Homo sapiens, UniProt P37840). The following applies: read-out: Ki, Human PD brain homogenate; 200 nM [125I]SIL23, 10 µg insoluble fraction/150 µl; 95% confidence interval in parentheses.
The subject of assay [4] is PD tissue. The arrangement: method as in PMID 19576880. The following applies: cited from earlier work.
Assay [5] concerns the target T1, recombinant α-syn fibrils. Kind of assay: biochemical.
The target in assay [6] is T2, Human PD brain homogenate (insoluble fraction). Kind of assay: biochemical.
The subject of assay [7] is Aβ plaques in AD brain. The arrangement: method as in PMID 16291932. The following applies: cited from earlier work.
Assay [8] concerns the target T3, synthetic Aβ1–42 fibrils (Homo sapiens, UniProt P05067). The assay is described as follows: biochemical.
Assay [9] concerns the target T4, recombinant tau fibrils (Homo sapiens, UniProt P10636). Kind of assay: biochemical.
Assay [10] has as its system insoluble fractions from control human brain tissue. Kind of assay: [125I]SIL23 saturation binding to insoluble fractions of control brain tissue. The settings on record: four control cases, listed as [^125I]SIL23. How it is done: Brain tissue samples were selected from an autopsy case series of patients evaluated for parkinsonism by movement disorders specialists at the Movement Disorders Center of Washington University School of Medicine in St. Louis. The clinical diagnosis of idiopathic PD was based on modified United Kingdom Parkinson’s Disease Society Brain Bank clinical diagnostic criteria with clear clinical response to levodopa. Dementia was determined by a movement disorders specialist based on clinical assessment of cognitive dysfunction sufficiently severe to impair activities of daily living, with further evaluation of cognitive impairment using the AD8 [20] and Mini-Mental Status Exam (MMSE). LB stage was assessed at autopsy using a PD staging scale (range: 0, 1–6). PD cases were selected based on a clinical diagnosis of PD plus dementia, Braak LB stage 5–6 pathology, and the absence of significant Aβ or tau pathology determined by immunohistochemistry. Control cases were selected based on the absence of α-syn, Aβ and tau pathology. Samples were used from both male and female subjects.
(§1) All data points were performed in triplicate.

Assay [11] has as its system crude PBS homogenate from control human brain. Kind of assay: [125I]SIL23 saturation binding to crude control brain homogenate. The settings on record: unfractionated PBS homogenate. Here is the method: as §1
Assay [12] has as its target T3, synthetic Aβ1–42 fibrils.
In assay [13] the target is T4, recombinant tau fibrils.

Where two headings read alike, the source gives them in different places.

T4 sequence (P10636 560-692): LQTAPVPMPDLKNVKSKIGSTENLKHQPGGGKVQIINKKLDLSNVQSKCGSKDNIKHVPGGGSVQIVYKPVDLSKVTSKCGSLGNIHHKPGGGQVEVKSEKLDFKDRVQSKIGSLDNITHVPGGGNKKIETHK
T3 sequence (P05067 672-713 limits assumed): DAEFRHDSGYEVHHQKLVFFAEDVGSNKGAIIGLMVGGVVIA

The term Kd denotes the free concentration of one partner at which half of the binding sites on the other are occupied at equilibrium, for simple one-to-one binding. With `CNc1ccc(/C=C/c2ccc(OCCOCCOCCF)nc2)cc1` [AV-45], in assay [1] (AD brain), the “average Bmax (binding site density) for AV-45 binding in AD brain” value is recorded as 8.8 pmol/mg protein. For the same compound, the Kd in assay [1] (read-out: Kd for AV-45 binding to Aβ plaques) was 3.7 nM.
By Ki is commonly meant the equilibrium dissociation constant of an inhibitor or competing ligand from its target. Regarding `CN(C)c1ncc(/C=C/c2nc3ccc(OCCF)cc3o2)s1` [BF227], the figures for the Ki in [2] and in [3] were 39.7 nM and 138 nM, respectively. In addition, the “radiolabeled BF227 binding in PD tissue” value in [4] is “not detectable”.
Turning to `O=C(O)c1cc(/N=N/c2ccc(-c3ccc(/N=N/c4ccc(O)c(C(=O)O)c4)cc3)cc2)ccc1O` [Chrysamine G], the values for the inhibition constant (Ki) in assay [5] and in assay [6] were 432 nM and 367 nM, respectively.
Consider `CNc1ccc(-c2nc3ccc(O)cc3s2)cc1` [PiB, Pittsburgh Compound B], for which the “average Bmax (binding site density) for PiB binding in AD brain” value in assay [7] (AD brain) was 1407 pmol/g wet weight. The dissociation constant Kd in [7] (read-out: Kd for PiB binding to Aβ plaques) is 2.5 nM. Moreover, the Ki in assay [5] is 116 nM; in assay [6] it was 99.2 nM.
On to `O=[N+]([O-])c1ccc2c(c1)Sc1ccccc1N2` [SIL3B], for which the inhibition constant (Ki) was 71.5 nM in assay [8] and 52.3 nM in assay [9].
In assay [8], `COc1ccc2c(c1)Sc1cc([N+](=O)[O-])ccc1N2` [SIL5] had an inhibition constant (Ki) of 110 nM.
Turning to `O=[N+]([O-])c1ccc2c(c1)Sc1cc(Br)ccc1N2` [SIL22], the inhibitory constant (Ki) was found to be 102 nM in assay [8] and 173 nM in assay [9].
As to `O=[N+]([O-])c1ccc2c(c1)Sc1cc(OC/C=C/I)ccc1N2` [SIL23], the “[125I]SIL23 binding in control cases” value in assay [10] is “no significant [^125I]SIL23 binding”. The entries for the “[125I]SIL23 binding in crude homogenate of a control case” value in [11] and in [11] (listed as [^125I]SIL23) were “no significant binding” and “No significant specific binding”, respectively. In addition, the “Bmax of [125I]SIL23 binding to Aβ1–42 fibrils” value in assay [12] is 23.7 pmol/nmol. Further, the “Bmax of [125I]SIL23 binding to tau fibrils” value in assay [13] turned out to be 4.57 pmol/nmol.
